Measurements as given in PMC4865535, “Effect of carbamazepine on dolutegravir pharmacokinetics and dosing recommendation” (European Journal of Clinical Pharmacology, 2016).
Several values for one entry are separate records, joined by “and”; a condition that tells them apart may be missing. Equal values may be shown once. Read-outs that look alike come from different tables or passages of the source. Values belong to the compound of their own block, whether it stands above or below them.

What was measured:
[1] = Safety evaluations (adverse events, laboratory tests) in the crossover study; type: in vivo, human; conditions: for Subjects who experienced at least one AE: by treatment period; for Drug-related adverse events: ALT increased / Drug-related adverse events: Any event / Drug-related adverse events: Asthenia / Drug-related adverse events: Cognitive disorder / Drug-related adverse events: Drug reaction with eosinophilia and systemic symptoms / Drug-related adverse events: Fatigue / Drug-related adverse events: Headache / Drug-related adverse events: Hyponatremia / Drug-related adverse events: Leukopenia / Drug-related adverse events: Lymphopenia / Drug-related adverse events: Nausea / Drug-related adverse events: Pain in extremity / Drug-related adverse events: Photosensitivity reaction / Drug-related adverse events: Pyrexia / Drug-related adverse events: Rash maculopapular / Drug-related adverse events: Thirst / Drug-related adverse events: Thrombocytopenia: DTG alone n = 16, CBZ alone n = 16, DTG + CBZ n = 14
Protocol: Safety evaluations included the monitoring of adverse events (AEs), physical examinations, clinical chemistry laboratory tests, vital signs, and electrocardiograms. Additionally, assessment of Columbia suicide severity rating scale scores was performed throughout the study, because CBZ exposure (along with exposure to several other AEDs) has been associated with increased risk of suicidal ideation and depression.

[2] = set-up: method as in ref 11 = [11]; 11. Tegretol ® (carbamazepine) [package insert]. East Hanover: Novartis; 2014; conditions: cited from earlier work
OATP1B1 = system: OATP1B1; set-up: method as in PMID 23132334; conditions: in vitro; cited from earlier work
CYP1A2 = system: CYP1A2; set-up: method as in PMID 23132334; conditions: in vitro; cited from earlier work
UGT2B7 = system: UGT2B7; set-up: method as in PMID 23132334; conditions: in vitro; cited from earlier work
CYP3A4 [3] = system: CYP3A4; set-up: method as in PMID 23132334; conditions: in vitro; cited from earlier work
[4] = Steady-state plasma DTG pharmacokinetics with and without CBZ (phase I open-label fixed-sequence crossover study); type: in vivo, human; conditions: for half-life: read-out: t1/2 (terminal elimination half-life) of DTG, geometric mean (CV%) (converted)
Protocol: This was a phase I, single-site, open-label, fixed-sequence, crossover study with three treatment periods to evaluate the effect of an oral extended-release formulation of CBZ on the steady-state PK of orally administered DTG in 16 healthy subjects. The study was conducted in accordance with the principles of the Declaration of Helsinki. A written informed consent was obtained from all subjects, and the protocol was approved by the institutional review board of the study site. The trial was registered at ClinicalTrials.gov (NCT01967771; protocol number: 200901). During period 1, subjects received DTG 50 mg once daily as a single agent for days 1 to 5. During period 2, subjects received CBZ alone and the dose was escalated: 100 mg twice daily for days 1 to 3, 200 mg twice daily for days 4 to 6, and 300 mg twice daily for days 7 to 16. During period 3, DTG 50 mg once daily was co-administered with CBZ 300 mg twice daily for days 1 to 5. There was no washout between treatment periods. As CBZ is recommended to be given with food per product information, all doses in the testing unit, including those on PK collection days, were administered orally in the morning 30 min after the start of the moderate-fat meal, and subjects were asked to do the same when dosing outside the unit. Subjects were housed at the clinical research unit from period 1, day 1, until the morning of period 2, day 8, as well as from period 2, day 16, through period 3, day 6. Phone call reminders and pill counts were employed when subjects self-administered CBZ as outpatients during period 2, days 8 to 16. […] Plasma samples were analyzed for DTG by PPD, Inc. (Middleton, WI) using a validated analytical method based on protein precipitation with acetonitrile containing the stable isotope-labeled internal standard (GSK1349572-d7-^15N), followed by high-performance liquid chromatography/tandem mass spectrometry analysis. The lower limit of quantification for DTG in plasma was 20 ng/mL, and the upper limit of quantification was 20,000 ng/mL. Precision and accuracy were evaluated by replicate analyses of human plasma quality control samples prepared at five concentrations: 60, 160, 640, 2400, and 15,200 ng/mL. Precision, measured as the percent coefficient of variation, ranged from 3.0 to 5.9 % across the quality control range. […] Both were within acceptance standards of 15 %. A non-compartmental PK analysis of the DTG concentration-time data was conducted by Phast Clinical Data, Inc. (Raleigh, NC). Pharmacokinetic analyses of plasma DTG concentration-time data were analyzed using Model 200 (for extravascular administration) of Phoenix WinNonlin version 6.3 (Pharsight Corporation, St. Louis, MO). Plasma PK parameters for DTG were calculated using actual elapsed times from dosing. The individual PK parameters that were determined included area under the curve from time zero to the end of the dosing interval (AUC(0-τ)), maximum observed plasma concentration (Cmax), plasma concentration at the end of the dosing interval (Cτ), oral clearance, and terminal half-life. This study was designed to estimate the magnitude of drug-interaction effect of CBZ on the PK parameters of DTG. No formal hypothesis was tested. Instead, an estimation approach was used to evaluate the effect of CBZ on DTG PK. Pharmacokinetic parameters were log-transformed and analyzed by analysis of variance to determine the point estimate and associated 90 % confidence intervals for the difference between test treatment (DTG + CBZ) and reference treatment (DTG alone). These values were then back-transformed to calculate the point and interval estimates for test-to-reference treatment ratios on the original scale. Geometric least-squares mean ratios and 90 % confidence intervals were generated by the mixed-effect model for within-subject treatment comparisons.

UGT1A1 = system: UGT1A1; set-up: method as in PMID 23132334; conditions: in vitro; cited from earlier work
P-glycoprotein (P-gp) = system: P-glycoprotein (P-gp); set-up: method as in PMID 23132334; conditions: cited from earlier work
OATP1B3 = system: OATP1B3; set-up: method as in PMID 23132334; conditions: in vitro; cited from earlier work
CYP3A4 [5] = system: CYP3A4; set-up: method as in ref 1 = [1]; 1. Tivicay ® (dolutegravir) [package insert]. Research Triangle Park: ViiV Healthcare; 2014; conditions: midazolam as probe substrate for CYP3A4, healthy subjects; cited from earlier work
CYP isozymes = system: CYP isozymes; set-up: method as in PMID 23132334; conditions: in vitro; cited from earlier work
[6] = system: breast cancer resistance protein; set-up: method as in PMID 23132334; conditions: in vitro; cited from earlier work
[7] = system: cytochrome P450 (CYP) 3A4; set-up: method as in PMID 23132334; conditions: minor component; primarily metabolized by UGT1A1; cited from earlier work
MRP2 = system: MRP2; set-up: method as in PMID 23132334; conditions: in vitro; cited from earlier work
CYP2B6 = system: CYP2B6; set-up: method as in PMID 23132334; conditions: in vitro; cited from earlier work
[8] = set-up: method as in PMID 25146692, PMID 23075918; conditions: DTG co-administered with tipranavir/ritonavir, efavirenz, and rifampin; cited from earlier work
P-gp = system: P-gp; set-up: method as in PMID 23132334; conditions: in vitro; cited from earlier work
[9] = DTG 50 mg once daily alone, day 5 of period 1, n = 16
[10] = DTG co-administered with CBZ vs DTG alone
[11] = DTG co-administered with CBZ, 14 subjects with PK results in both periods

SMILES: NC(=O)N1c2ccccc2C=Cc2ccccc21 [CBZ, Carbamazepine]
Subjects who experienced at least one AE ([1]; healthy subjects): six
Drug-related adverse events: ALT increased ([1]; healthy subjects): 1 (6) n (%)
Drug-related adverse events: Any event ([1]; healthy subjects): 6 (38) n (%)
Drug-related adverse events: Asthenia ([1]; healthy subjects): 1 (6) n (%)
Drug-related adverse events: Cognitive disorder ([1]; healthy subjects): 1 (6) n (%)
Drug-related adverse events: Drug reaction with eosinophilia and systemic symptoms ([1]; healthy subjects): 1 (6) n (%)
Drug-related adverse events: Fatigue ([1]; healthy subjects): 0 n (%)
Drug-related adverse events: Headache ([1]; healthy subjects): 2 (13) n (%)
Drug-related adverse events: Hyponatremia ([1]; healthy subjects): 1 (6) n (%)
Drug-related adverse events: Leukopenia ([1]; healthy subjects): 1 (6) n (%)
Drug-related adverse events: Lymphopenia ([1]; healthy subjects): 1 (6) n (%)
Drug-related adverse events: Nausea ([1]; healthy subjects): 1 (6) n (%)
Drug-related adverse events: Pain in extremity ([1]; healthy subjects): 1 (6) n (%)
Drug-related adverse events: Photosensitivity reaction ([1]; healthy subjects): 0 n (%)
Drug-related adverse events: Pyrexia ([1]; healthy subjects): 1 (6) n (%)
Drug-related adverse events: Rash maculopapular ([1]; healthy subjects): 1 (6) n (%)
Drug-related adverse events: Thirst ([1]; healthy subjects): 1 (6) n (%)
Drug-related adverse events: Thrombocytopenia ([1]; healthy subjects): 2 (13) n (%)
White blood cell count (decrease) ([1]; one subject with suspected grade 2 hypersensitivity syndrome on 300 mg CBZ twice daily, period 2, baseline 8800 cells/mm^3): 3800 cells/mm^3
Subjects permanently discontinued because of AEs ([1]; period 2 (CBZ alone)): Two
Platelet count (low) ([1]; same subject on 300 mg CBZ twice daily, 159,000 3 days before): 78,000 cells/mm^3
ALT level (high) ([1]; same subject on 300 mg CBZ twice daily, grade 2): 151 IU/L
half-life ([2]; following chronic dosing): 12 to 17 h
half-life ([2]; following single dosing): 25 to 65 h

CL/F (oral clearance) of DTG, geometric mean (CV%) [4, 9]: 0.929 (21.4) L/h
Cτ of plasma DTG, geometric mean (CV%) [4, 9]: 1.20 (39.1) μg/mL
Increase of dolutegravir clearance [4, 10]: 95%
Reduction of geometric mean AUC(0-τ) of DTG [4, 10]: 49%
Reduction of geometric mean Cmax of DTG [4, 10]: 33%
Reduction of geometric mean Cτ of DTG [4, 10]: 73% and ~ 73%
Reduction in AUC(0-τ) on an individual subject basis [4, 11]: 27 to 58%
Reduction in Cτ on an individual subject basis [4, 11]: 53 to 82%
half-life ([4]; human, plasma, oral, DTG 50 mg once daily + CBZ 300 mg twice daily, day 5 of period 3, n = 14): 7.31 h
Cmax ([4]; human, plasma, oral, DTG 50 mg once daily alone, day 5 of period 1, n = 16, read-out: Cmax of plasma DTG, geometric mean (CV%)): 4160 ng/mL
half-life ([4]; human, plasma, oral, DTG 50 mg once daily alone, day 5 of period 1, n = 16): 12.9 h
AUC ([4]; human, plasma, DTG 50 mg once daily alone, day 5 of period 1, oral with moderate-fat meal, healthy subjects, n = 16, read-out: AUC(0-τ) of plasma DTG, geometric mean (CV%)): 53800 ng·h/mL
SMILES: C[C@@H]1CCO[C@H]2Cn3cc(C(=O)NCc4ccc(F)cc4F)c(=O)c(O)c3C(=O)N12 [DTG, Dolutegravir]
Direct inhibition of OATP1B1 (OATP1B1): minimal or no direct inhibition
Induction of CYP1A2 (CYP1A2): not an inducer
Direct inhibition of UGT2B7 (UGT2B7): minimal or no direct inhibition
Induction of CYP3A4 (CYP3A4 [3]): not an inducer
Direct inhibition of UGT1A1 (UGT1A1): minimal or no direct inhibition
Substrate of P-gp (P-glycoprotein (P-gp)): substrate of P-glycoprotein
Direct inhibition of OATP1B3 (OATP1B3): minimal or no direct inhibition
Effect on midazolam exposure (CYP3A4 [5]): no significant effect
Direct inhibition of CYP isozymes (CYP isozymes): minimal or no direct inhibition
Direct inhibition of breast cancer resistance protein [6]: minimal or no direct inhibition
Tolerability ([1]; DTG alone and co-administered with CBZ, healthy subjects): well tolerated
Subjects who experienced at least one AE ([1]; healthy subjects): No subjects experienced AEs
Drug-related adverse events: ALT increased ([1]; healthy subjects): 0 n (%)
Drug-related adverse events: Any event ([1]; healthy subjects): 0 n (%)
Drug-related adverse events: Asthenia ([1]; healthy subjects): 0 n (%)
Drug-related adverse events: Cognitive disorder ([1]; healthy subjects): 0 n (%)
Drug-related adverse events: Drug reaction with eosinophilia and systemic symptoms ([1]; healthy subjects): 0 n (%)
Drug-related adverse events: Fatigue ([1]; healthy subjects): 0 n (%)
Drug-related adverse events: Headache ([1]; healthy subjects): 0 n (%)
Drug-related adverse events: Hyponatremia ([1]; healthy subjects): 0 n (%)
Drug-related adverse events: Leukopenia ([1]; healthy subjects): 0 n (%)
Drug-related adverse events: Lymphopenia ([1]; healthy subjects): 0 n (%)
Drug-related adverse events: Nausea ([1]; healthy subjects): 0 n (%)
Drug-related adverse events: Pain in extremity ([1]; healthy subjects): 0 n (%)
Drug-related adverse events: Photosensitivity reaction ([1]; healthy subjects): 0 n (%)
Drug-related adverse events: Pyrexia ([1]; healthy subjects): 0 n (%)
Drug-related adverse events: Rash maculopapular ([1]; healthy subjects): 0 n (%)
Drug-related adverse events: Thirst ([1]; healthy subjects): 0 n (%)
Drug-related adverse events: Thrombocytopenia ([1]; healthy subjects): 0 n (%)
Component of metabolism via CYP3A4 [7]: approximately 10%
Direct inhibition of MRP2 (MRP2): minimal or no direct inhibition
Induction of CYP2B6 (CYP2B6): not an inducer
Reduction of DTG AUC(0-τ) [8]: 36 to 49%
Reduction of DTG Cτ [8]: 72 to 76%
Direct inhibition of P-gp (P-gp): minimal or no direct inhibition
